Data published in ChEMBL document CHEMBL1201862, “PubChem BioAssay data set” (2004).
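These data come from cells grown in 96-well plates and exposed to compound for 48 hours at five concentrations. Here, GI50 denotes the concentration required for 50% inhibition of growth.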 Active and inactive are the calls of the source. Rule as the data show it: active = GI50 up to about 1.1 µM and inactive = higher.

Tests used:
Assay in all cases: NCI tumour cell line growth inhibition, 48 h
LOX IMVI = tested on: LOX IMVI
K562 = tested on: K562
HOP-62 = tested on: HOP-62
T47D = tested on: T47D
NCI-H460 = tested on: NCI-H460
NCI-H522 = tested on: NCI-H522
SK-OV-3 = tested on: SK-OV-3
MDA-MB-435 = tested on: MDA-MB-435
PC-3 = tested on: PC-3
RPMI-8226 = tested on: RPMI-8226
HOP-92 = tested on: HOP-92
HL-60 = tested on: HL-60
OVCAR-3 = tested on: OVCAR-3
U-251 = tested on: U-251
SF-539 = tested on: SF-539
EKVX = tested on: EKVX
SF-268 = tested on: SF-268
MOLT-4 = tested on: MOLT-4
MCF7 = tested on: MCF7
HCC 2998 = tested on: HCC 2998

Compound	GI50 (LOX IMVI)	GI50 (K562)	GI50 (HOP-62)	GI50 (T47D)	GI50 (NCI-H460)	GI50 (NCI-H522)	GI50 (SK-OV-3)	GI50 (MDA-MB-435)	GI50 (PC-3)	GI50 (RPMI-8226)	GI50 (HOP-92)	GI50 (HL-60)	GI50 (OVCAR-3)	GI50 (U-251)	GI50 (SF-539)	GI50 (EKVX)	GI50 (SF-268)	GI50 (MOLT-4)	GI50 (MCF7)	GI50 (HCC 2998)
O=C(Nc1ccn(C2CCC(COC(c3ccccc3)(c3ccccc3)c3ccccc3)O2)c(=O)n1)c1ccccc1 (stereo not given)	2.72 µM (inactive)	2.86 µM (inactive)	10.7 µM (inactive)	7.46 µM (inactive)	2.92 µM (inactive)	5.32 µM (inactive)	9.44 µM (inactive)	3.42 µM (inactive)	1.5 µM (inactive)	2.31 µM (inactive)	1.86 µM (inactive)	1.83 µM (inactive)	2.4 µM (inactive)	4.06 µM (inactive)	3.43 µM (inactive)	5.11 µM (inactive)	7.64 µM (inactive)	2.56 µM (inactive)	4.22 µM (inactive)	11.5 µM (inactive)
Cc1cc(O)nc(NN2C(Cl)C(=O)C2c2ccc(O)cc2)n1 (stereo not given)	2.69 µM (inactive)	2.37 µM (inactive)	6.17 µM (inactive)	12.7 µM (inactive)	4.8 µM (inactive)	15 µM (inactive)	11.3 µM (inactive)	8.47 µM (inactive)	13.2 µM (inactive)	2.22 µM (inactive)	14.9 µM (inactive)	2.79 µM (inactive)	6.28 µM (inactive)	5.4 µM (inactive)	8.93 µM (inactive)	13.6 µM (inactive)	8.45 µM (inactive)	5.33 µM (inactive)	4.03 µM (inactive)	11.2 µM (inactive)
COc1ccc2[nH]c(Cl)c(/C=C3/C(=O)N(c4ccccc4)c4ccccc43)c2c1	3.29 µM (inactive)	3.18 µM (inactive)	6.81 µM (inactive)	3.76 µM (inactive)	3.55 µM (inactive)	3.25 µM (inactive)	3.5 µM (inactive)	1.46 µM (inactive)	3.7 µM (inactive)	2.82 µM (inactive)	13.7 µM (inactive)	2.33 µM (inactive)	3.37 µM (inactive)	3.98 µM (inactive)	3.03 µM (inactive)	7.08 µM (inactive)	5.08 µM (inactive)	3.82 µM (inactive)	0.506 µM (active)	4.24 µM (inactive)
CC(NCc1c(O)ccc2c(-c3ccccc3)cc(=O)oc12)C(=O)O (stereo not given)	> 100 µM (inactive)	> 100 µM (inactive)	> 100 µM (inactive)	> 100 µM (inactive)	> 100 µM (inactive)	> 100 µM (inactive)	> 100 µM (inactive)	> 100 µM (inactive)	> 100 µM (inactive)	> 100 µM (inactive)	86.1 µM (inactive)	> 100 µM (inactive)	> 100 µM (inactive)	> 100 µM (inactive)	> 100 µM (inactive)	> 100 µM (inactive)	> 100 µM (inactive)	> 100 µM (inactive)	> 100 µM (inactive)	> 100 µM (inactive)
CCCCn1c2c(n(CCCC)c1=S)-c1c(n(CCCC)c(=S)n1CCCC)SSc1c(n(CCCC)c(=S)n1CCCC)-c1c(n(CCCC)c(=S)n1CCCC)SSc1c(n(CCCC)c(=S)n1CCCC)-c1c(n(CCCC)c(=S)n1CCCC)SS2	4 µM (inactive)	2.03 µM (inactive)	15.2 µM (inactive)	1.5 µM (inactive)	> 31 µM (inactive)	0.78 µM (active)	> 29.2 µM (inactive)	11.3 µM (inactive)	2.04 µM (inactive)	1.99 µM (inactive)	1.65 µM (inactive)	1.75 µM (inactive)	1.87 µM (inactive)	2.15 µM (inactive)	4.31 µM (inactive)	5.37 µM (inactive)	5.24 µM (inactive)	2.32 µM (inactive)	12.8 µM (inactive)	12.6 µM (inactive)
N#CC(Cl)CS(=O)(=O)c1ccccc1 (stereo not given)	7.14 µM (inactive)	1.97 µM (inactive)	> 44.6 µM (inactive)	2.85 µM (inactive)	18.6 µM (inactive)	0.681 µM (active)	19.5 µM (inactive)	17.1 µM (inactive)	17.5 µM (inactive)	3.32 µM (inactive)	2.02 µM (inactive)	1.53 µM (inactive)	2.71 µM (inactive)	19.3 µM (inactive)	14.9 µM (inactive)	18.6 µM (inactive)	11 µM (inactive)	1.34 µM (inactive)	10.2 µM (inactive)	15.8 µM (inactive)
Cc1cc(C)c2c(O)cc(-c3ccc4ccccc4c3)nc2n1	17.9 µM (inactive)	2.05 µM (inactive)	32.1 µM (inactive)	17.3 µM (inactive)	9.84 µM (inactive)	21.4 µM (inactive)	33.3 µM (inactive)	2.92 µM (inactive)	10.2 µM (inactive)	6.31 µM (inactive)	11.1 µM (inactive)	3.04 µM (inactive)	32.4 µM (inactive)	16.7 µM (inactive)	30.8 µM (inactive)	29.5 µM (inactive)	57.3 µM (inactive)	3.66 µM (inactive)	15.5 µM (inactive)	16.3 µM (inactive)
C=C(C)[C@@H](C(=O)OC)N1C(=O)c2ccccc2C1=O	> 100 µM (inactive)	> 100 µM (inactive)	> 100 µM (inactive)	> 100 µM (inactive)	> 100 µM (inactive)	> 100 µM (inactive)	> 100 µM (inactive)	> 100 µM (inactive)	> 100 µM (inactive)	> 100 µM (inactive)	> 100 µM (inactive)	> 100 µM (inactive)	> 100 µM (inactive)	> 100 µM (inactive)	> 100 µM (inactive)	> 100 µM (inactive)	> 100 µM (inactive)	> 100 µM (inactive)	> 100 µM (inactive)	> 100 µM (inactive)
OC(COc1ccccc1)CN1CCCCC1 (stereo not given)	> 100 µM (inactive)	> 100 µM (inactive)	> 100 µM (inactive)	> 100 µM (inactive)	> 100 µM (inactive)	> 100 µM (inactive)	> 100 µM (inactive)	> 100 µM (inactive)	> 100 µM (inactive)	> 100 µM (inactive)	> 100 µM (inactive)	> 100 µM (inactive)	> 100 µM (inactive)	> 100 µM (inactive)	> 100 µM (inactive)	63.4 µM (inactive)	> 100 µM (inactive)	> 100 µM (inactive)	> 100 µM (inactive)	> 100 µM (inactive)
C=C1C(=O)OC2CC(C)C(/C=C/C(C)=O)=CCC12 (stereo not given)	> 100 µM (inactive)	58.7 µM (inactive)	> 100 µM (inactive)	> 100 µM (inactive)	> 100 µM (inactive)	29.8 µM (inactive)	> 100 µM (inactive)	> 100 µM (inactive)	> 100 µM (inactive)	86.1 µM (inactive)	> 100 µM (inactive)	33.1 µM (inactive)	> 100 µM (inactive)	> 100 µM (inactive)	> 100 µM (inactive)	> 100 µM (inactive)	> 100 µM (inactive)	83 µM (inactive)	> 100 µM (inactive)	> 100 µM (inactive)
CC(C)(C)c1cc2c(c(C(C)(C)C)c1O)CC(=O)O2	38.5 µM (inactive)	34 µM (inactive)	30.3 µM (inactive)	23.2 µM (inactive)	37.7 µM (inactive)	46 µM (inactive)	48.8 µM (inactive)	27 µM (inactive)	27.2 µM (inactive)	23.6 µM (inactive)	< 0.01 µM (active)	34.6 µM (inactive)	16.6 µM (inactive)	41.9 µM (inactive)	23.2 µM (inactive)	30.8 µM (inactive)	44.4 µM (inactive)	35.1 µM (inactive)	35.6 µM (inactive)	35 µM (inactive)
Cc1ccnc2nc(-c3cccc(Cl)c3)cc(O)c12	0.155 µM (active)	< 0.0143 µM (active)	0.0708 µM (active)	> 100 µM (inactive)	0.0386 µM (active)	0.0459 µM (active)	0.267 µM (active)	< 0.01 µM (active)	0.0206 µM (active)	0.0356 µM (active)	2.43 µM (inactive)	0.0115 µM (active)	0.0279 µM (active)	0.0596 µM (active)	0.0906 µM (active)	> 100 µM (inactive)	20.7 µM (inactive)	0.0658 µM (active)	0.36 µM (active)	0.224 µM (active)
CC(C)(/N=N/C(C)(C)C(=N)N)C(=N)N	> 100 µM (inactive)	> 100 µM (inactive)	> 100 µM (inactive)	> 100 µM (inactive)	> 100 µM (inactive)	> 100 µM (inactive)	> 100 µM (inactive)	> 100 µM (inactive)	> 100 µM (inactive)	> 100 µM (inactive)	> 100 µM (inactive)	> 100 µM (inactive)	> 100 µM (inactive)	> 100 µM (inactive)	> 100 µM (inactive)	> 100 µM (inactive)	> 100 µM (inactive)	> 100 µM (inactive)	> 100 µM (inactive)	> 100 µM (inactive)
Cc1ccc(S(=O)(=O)NC(=O)C2=C3SCCN3C(=O)N(S(=O)(=O)c3ccc(C)cc3)C2c2ccccc2)cc1 (stereo not given)	39.4 µM (inactive)	36.7 µM (inactive)	59.3 µM (inactive)	> 100 µM (inactive)	71.1 µM (inactive)	20.4 µM (inactive)	24.1 µM (inactive)	22.9 µM (inactive)	33.9 µM (inactive)	26.7 µM (inactive)	28.1 µM (inactive)	43.2 µM (inactive)	20 µM (inactive)	39.3 µM (inactive)	25.6 µM (inactive)	> 100 µM (inactive)	32.3 µM (inactive)	44.9 µM (inactive)	29.9 µM (inactive)	12.2 µM (inactive)
